14 compounds from US20260265238A1, “COMPOUNDS AND PHARMACEUTICAL COMPOSITIONS THAT DEGRADE SWI/SNF-RELATED MATRIX-ASSOCIATED ACTIN-DEPENDENT REGULATOR OF CHROMATIN SUBFAMILY A” (Plexium, Inc., priority 2023, published 2026) can be followed below.

Where only a bound is given, the exact number is not on record here.

The target of assay [1] is T1, SMARCA2-HiBiT HeLa cells (protein which is expressed from the SMARCA2 gene) (Homo sapiens, UniProt P51531).
T1 construct: protein which is expressed from the SMARCA2 and SMARCA4 genes; host or cells: HeLa (SMARCA2-HiBiT engineered line)
Kind of assay: SMARCA2 degradation assay (HiBiT-fusion HeLa cell line, 24 h, luminescence). Type of assay: cell-based. The method in brief:
(§1)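 HiBiT-fusion HeLa lines, 8,000 cells/well, overnight attachment; cpd 10-pt series (typically 10 μM–300 pM), 24 h, 37° C. Lysis with LgBiT + HiBiT substrate, 10 min shaking at RT, luminescence read. DC50 from dose-response fit; % degradation also scored at 1 μM.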

Assay [2] addresses T2, SMARCA4-HiBiT HeLa cells (protein which is expressed from the SMARCA4 gene) (Homo sapiens, UniProt P51532).
T2 construct: protein which is expressed from the SMARCA2 and SMARCA4 genes; host or cells: HeLa (SMARCA4-HiBiT engineered line)
Description: SMARCA4 degradation assay (HiBiT-fusion HeLa cell line, 24 h, luminescence). Type of assay: cell-based. The method in brief: as §1

T2 sequence (P51532 whole entry): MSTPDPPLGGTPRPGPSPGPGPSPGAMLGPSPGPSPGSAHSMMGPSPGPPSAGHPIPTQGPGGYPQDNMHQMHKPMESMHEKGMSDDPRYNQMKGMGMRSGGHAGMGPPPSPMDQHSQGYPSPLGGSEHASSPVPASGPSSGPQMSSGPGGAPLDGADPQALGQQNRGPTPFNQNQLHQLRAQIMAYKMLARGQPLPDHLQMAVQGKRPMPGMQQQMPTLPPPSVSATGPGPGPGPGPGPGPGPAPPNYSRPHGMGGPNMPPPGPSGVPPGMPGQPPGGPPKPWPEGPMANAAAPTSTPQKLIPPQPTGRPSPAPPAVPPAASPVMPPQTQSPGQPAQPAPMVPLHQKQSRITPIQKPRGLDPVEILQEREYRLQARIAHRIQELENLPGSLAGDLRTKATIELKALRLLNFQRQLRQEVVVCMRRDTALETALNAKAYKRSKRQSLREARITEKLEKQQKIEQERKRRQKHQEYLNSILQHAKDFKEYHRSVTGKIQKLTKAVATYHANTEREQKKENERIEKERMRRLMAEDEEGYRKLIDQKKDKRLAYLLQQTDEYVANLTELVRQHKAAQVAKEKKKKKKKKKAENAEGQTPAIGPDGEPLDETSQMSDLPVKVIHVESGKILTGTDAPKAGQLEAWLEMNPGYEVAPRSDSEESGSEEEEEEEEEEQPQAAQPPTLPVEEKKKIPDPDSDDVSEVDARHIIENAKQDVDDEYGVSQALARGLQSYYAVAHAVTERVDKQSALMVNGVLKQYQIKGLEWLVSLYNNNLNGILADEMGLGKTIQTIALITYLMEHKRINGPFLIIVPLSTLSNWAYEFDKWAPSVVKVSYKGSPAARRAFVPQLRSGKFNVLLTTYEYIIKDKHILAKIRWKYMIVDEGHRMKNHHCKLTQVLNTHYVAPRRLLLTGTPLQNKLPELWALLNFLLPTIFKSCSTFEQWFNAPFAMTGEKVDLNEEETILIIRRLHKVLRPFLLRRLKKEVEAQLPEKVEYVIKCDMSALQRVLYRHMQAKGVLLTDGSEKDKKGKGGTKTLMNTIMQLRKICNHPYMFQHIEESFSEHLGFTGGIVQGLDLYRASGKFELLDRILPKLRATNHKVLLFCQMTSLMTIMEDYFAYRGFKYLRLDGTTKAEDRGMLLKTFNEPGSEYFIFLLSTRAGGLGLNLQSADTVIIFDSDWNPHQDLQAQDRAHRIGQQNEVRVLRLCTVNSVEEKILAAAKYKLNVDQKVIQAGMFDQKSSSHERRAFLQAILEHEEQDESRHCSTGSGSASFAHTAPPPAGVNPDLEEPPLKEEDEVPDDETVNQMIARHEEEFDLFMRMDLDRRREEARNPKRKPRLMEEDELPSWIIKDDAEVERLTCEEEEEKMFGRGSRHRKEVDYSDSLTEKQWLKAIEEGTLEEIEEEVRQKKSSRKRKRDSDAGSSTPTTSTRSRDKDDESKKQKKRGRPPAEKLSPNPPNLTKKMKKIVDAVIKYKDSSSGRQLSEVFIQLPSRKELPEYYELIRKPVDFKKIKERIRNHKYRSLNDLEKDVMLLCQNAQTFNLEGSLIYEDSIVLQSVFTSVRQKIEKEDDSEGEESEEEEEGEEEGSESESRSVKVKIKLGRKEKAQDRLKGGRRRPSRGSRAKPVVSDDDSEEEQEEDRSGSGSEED
T1 sequence (P51531 whole entry): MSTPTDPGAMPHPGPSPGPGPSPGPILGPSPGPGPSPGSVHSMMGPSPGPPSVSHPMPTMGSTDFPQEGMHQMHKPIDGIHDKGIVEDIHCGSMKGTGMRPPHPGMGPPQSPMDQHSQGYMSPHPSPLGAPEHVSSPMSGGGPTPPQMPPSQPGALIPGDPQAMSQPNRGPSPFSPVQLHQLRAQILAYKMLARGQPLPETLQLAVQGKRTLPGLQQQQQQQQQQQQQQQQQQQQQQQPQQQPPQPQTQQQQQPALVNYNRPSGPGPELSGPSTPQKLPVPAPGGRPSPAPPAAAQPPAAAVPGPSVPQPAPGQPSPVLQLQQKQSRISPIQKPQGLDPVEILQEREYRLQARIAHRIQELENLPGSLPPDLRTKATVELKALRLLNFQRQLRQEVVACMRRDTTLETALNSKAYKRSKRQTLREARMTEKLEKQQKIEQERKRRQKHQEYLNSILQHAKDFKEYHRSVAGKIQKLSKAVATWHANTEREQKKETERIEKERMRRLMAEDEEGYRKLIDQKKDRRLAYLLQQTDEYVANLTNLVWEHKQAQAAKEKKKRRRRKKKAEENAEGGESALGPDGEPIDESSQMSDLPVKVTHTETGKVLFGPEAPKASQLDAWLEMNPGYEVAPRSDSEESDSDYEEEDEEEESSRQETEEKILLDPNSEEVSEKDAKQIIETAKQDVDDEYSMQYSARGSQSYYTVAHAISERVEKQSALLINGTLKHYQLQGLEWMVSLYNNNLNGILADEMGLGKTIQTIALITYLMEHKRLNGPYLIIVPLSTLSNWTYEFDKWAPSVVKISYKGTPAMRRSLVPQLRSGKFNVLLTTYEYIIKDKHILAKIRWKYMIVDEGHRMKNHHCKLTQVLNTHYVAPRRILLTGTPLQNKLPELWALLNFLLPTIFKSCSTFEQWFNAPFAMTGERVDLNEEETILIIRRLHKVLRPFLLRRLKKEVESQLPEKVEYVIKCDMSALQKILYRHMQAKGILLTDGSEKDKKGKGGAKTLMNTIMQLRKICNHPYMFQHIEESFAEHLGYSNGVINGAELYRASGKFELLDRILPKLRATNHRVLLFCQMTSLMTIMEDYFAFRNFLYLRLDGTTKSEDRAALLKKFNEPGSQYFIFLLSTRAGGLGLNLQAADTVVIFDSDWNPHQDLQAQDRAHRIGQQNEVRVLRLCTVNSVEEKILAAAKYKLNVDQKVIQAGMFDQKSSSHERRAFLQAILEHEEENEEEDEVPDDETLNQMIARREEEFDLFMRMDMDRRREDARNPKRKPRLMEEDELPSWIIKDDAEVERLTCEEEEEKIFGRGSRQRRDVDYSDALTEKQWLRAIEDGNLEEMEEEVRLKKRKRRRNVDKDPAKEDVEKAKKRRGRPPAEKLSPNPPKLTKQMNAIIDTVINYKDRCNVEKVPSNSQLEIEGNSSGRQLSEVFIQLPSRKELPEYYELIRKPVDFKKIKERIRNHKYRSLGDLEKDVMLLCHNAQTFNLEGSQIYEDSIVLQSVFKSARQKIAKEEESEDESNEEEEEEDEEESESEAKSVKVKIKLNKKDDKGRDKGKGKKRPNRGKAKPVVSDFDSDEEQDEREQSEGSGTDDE

With `C[C@@H]1CCN(c2cc(-c3ccccc3O)nnc2N)CCN1c1ccnc(C#CCN2CC3CCC(C2)O3)n1` [Compound P-183, o-{5-[(R)-5-methyl-4-(2-{3-(8-oxa-3-azabicyclo[3.2.1]oct-3-yl)-1-propynyl}-4-pyrimidinyl)-1,4-diazepan-1-yl]-6-amino-3-pyridazinyl}phenol], in assay [1], the DC50 was 50 to 500 nM and the “SMARCA2 % Degradation @ 1 μM” value is “+++ (+++=>70%)”. In assay [2], this compound registered a DC50 of 50 to 500 nM and an inhibition at 1 µM of 30 to 70%.
`C[C@@H]1CCN(c2cc(-c3ccccc3O)nnc2N)CCN1c1ccnc(C#CCN2C3COCC2C3)n1` [Compound P-184, o-{5-[(R)-5-methyl-4-(2-{3-(3-oxa-6-azabicyclo[3.1.1]hept-6-yl)-1-propynyl}-4-pyrimidinyl)-1,4-diazepan-1-yl]-6-amino-3-pyridazinyl}phenol]: in assay [1], the DC50 was < 50 nM and the “SMARCA2 % Degradation @ 1 μM” value is “+++ (+++=>70%)”. Also, in assay [2], the DC50 was < 50 nM and the inhibition at 1 µM is 30 to 70%.
`Cc1nc(C)n(CC#Cc2nccc(N3CCN(c4cc(-c5ccccc5O)nnc4N)CC[C@H]3C)n2)c1C` [Compound P-185, o-{5-[(R)-5-methyl-4-{2-[3-(2,4,5-trimethyl-1-imidazolyl)-1-propynyl]-4-pyrimidinyl}-1,4-diazepan-1-y1]-6-amino-3-pyridaziny1} phenol]: in assay [1], the DC50 is 50 to 500 nM and the “SMARCA2 % Degradation @ 1 μM” value is reported as “+++ (+++=>70%)”. Further, in assay [2], the DC50 lay in the range of 50 to 500 nM and the inhibition at 1 µM is > 70%.
For the compound `Cc1nccn1CC#Cc1nccc(N2CCN(c3cc(-c4ccccc4O)nnc3N)CC[C@H]2C)n1` [Compound P-186, o-{5-[(R)-5-methyl-4-{2-[3-(2-methyl-1-imidazolyl)-1-propynyl]-4-pyrimidinyl}-1,4-diazepan-1-yl]-6-amino-3-pyridazinyl}phenol], in assay [1], the DC50 lay in the range of 50 to 500 nM and the “SMARCA2 % Degradation @ 1 μM” value is given as “+++ (+++=>70%)”. In assay [2], this compound yielded a DC50 of 50 to 500 nM and an inhibition at 1 µM of 30 to 70%.
Consider `Nc1nnc(-c2ccccc2O)cc1N1CCC2(CCN(c3ccnc(C#CCN4CC5CC4C5)n3)CC2)C1` [Compound P-187, o-{6-amino-5-[8-(2-{3-(2-azabicyclo[2.1.1]hex-2-yl)-1-propynyl}-4-pyrimidinyl)-2,8-diaza-2-spiro[4.5]decyl]-3-pyridazinyl}phenol], for which, in assay [1], the DC50 fell in the range of 50 to 500 nM and the “SMARCA2 % Degradation @ 1 μM” value is reported as “++ (++=30-70%)”. For the same compound, in assay [2], the DC50 is 50 to 500 nM and the inhibition at 1 µM was in the range of 30 to 70%.
Regarding `Nc1nnc(-c2ccccc2O)cc1N1CC2CCC(C1)N2c1ccnc(C#CCN2CC3CC2C3)n1` [Compound P-188, o-{6-amino-5-[8-(2-{3-(2-azabicyclo[2.1.1]hex-2-yl)-1-propynyl}-4-pyrimidinyl)-3,8-diazabicyclo[3.2.1]oct-3-yl]-3-pyridazinyl}phenol], in assay [1], the DC50 is < 50 nM and the “SMARCA2 % Degradation @ 1 μM” value is “+++ (+++=>70%)”. In addition, in assay [2], the DC50 is < 50 nM and the inhibition at 1 µM was in the range of 30 to 70%.
On to `C[C@@H]1CCN(c2cc(-c3ccccc3O)nnc2N)CCN1c1nc(C#CCN2CC3CC2C3)ncc1F` [Compound P-189, o-{5-[(R)-4-(2-{3-(2-azabicyclo[2.1.1]hex-2-yl)-1-propynyl}-5-fluoro-4-pyrimidinyl)-5-methyl-1,4-diazepan-1-yl]-6-amino-3-pyridazinyl}phenol], for which, in assay [1], the DC50 is < 50 nM and the “SMARCA2 % Degradation @ 1 μM” value is reported as “++ (++=30-70%)”. In addition, in assay [2], the DC50 was < 50 nM and the inhibition at 1 µM was in the range of 30 to 70%.
On to `C[C@@H]1CCN(c2cc(-c3ccccc3O)nnc2N)CCN1c1ccnc(C#CCN2CC3CC2(C)C3)n1` [Compound P-190, o-{5-[(R)-5-methyl-4-(2-{3-(1-methyl-2-azabicyclo[2.1.1]hex-2-yl)-1-propynyl}-4-pyrimidinyl)-1,4-diazepan-1-yl]-6-amino-3-pyridazinyl}phenol], for which, in assay [1], the DC50 lay within 50 to 500 nM and the “SMARCA2 % Degradation @ 1 μM” value was “+++ (+++=>70%)”. In assay [2], the DC50 was in the range of 50 to 500 nM and the inhibition at 1 µM lay in the range of 30 to 70%.
With `C[C@@H]1CCN(c2cc(-c3ccccc3O)nnc2N)CCN1c1ccnc(C#CCn2cccc2)n1` [Compound P-191, o-{5-[(R)-5-methyl-4-{2-[3-(1-pyrrolyl)-1-propynyl]-4-pyrimidinyl}-1,4-diazepan-1-yl]-6-amino-3-pyridaziny1}phenol], in assay [1], the DC50 fell in the range of 50 to 500 nM and the “SMARCA2 % Degradation @ 1 μM” value was “++ (++=30-70%)”. In addition, in assay [2], the DC50 lay in the range of 50 to 500 nM and the inhibition at 1 µM was in the range of 30 to 70%.
As to `C[C@@H]1CCN(c2cc(-c3ccccc3O)nnc2N)CCN1c1ccnc(C#CC2CN(C)C2)n1` [Compound P-192, o-{5-[(R)-5-methyl-4-{2-[2-(1-methyl-3-azetidinyl)ethynyl]-4-pyrimidinyl}-1,4-diazepan-1-y1]-6-amino-3-pyridaziny1} phenol], in assay [1], the DC50 is < 50 nM and the “SMARCA2 % Degradation @ 1 μM” value is on record as “+++ (+++=>70%)”. In assay [2], this compound had a DC50 of 50 to 500 nM and an inhibition at 1 µM of 30 to 70%.
Taken in the same sequence, the figures for `CC1(F)CCN(CC#Cc2nccc(N3CC4CCC(C3)N4c3cc(-c4ccccc4O)nnc3N)n2)C1` (centres unmarked) [Compound P-193, o-[6-amino-5-(3-{2-[3-(3-fluoro-3-methyl-1-pyrrolidinyl)-1-propynyl]-4-pyrimidinyl}-3,8-diazabicyclo[3.2.1]oct-8-yl)-3-pyridazinyl]phenol] were 50 to 500 nM, “++ (++=30-70%)”, 50 to 500 nM and < 30%.
As for `CC1(F)CCN(CC#Cc2nccc(N3C4CCC3CN(c3cc(-c5ccccc5O)nnc3N)C4)n2)C1` (centres unmarked) [Compound P-194, o-[6-amino-5-(8-{2-[3-(3-fluoro-3-methyl-1-pyrrolidinyl)-1-propynyl]-4-pyrimidinyl}-3,8-diazabicyclo[3.2.1]oct-3-yl)-3-pyridazinyl]phenol], in assay [1], the DC50 was < 50 nM and the “SMARCA2 % Degradation @ 1 μM” value is recorded as “++ (++=30-70%)”. Also, in assay [2], the DC50 is < 50 nM and the inhibition at 1 µM lay within 30 to 70%.
Consider `CC1(F)CCN(CC#Cc2nccc(N3CCC4(CC3)CCN(c3cc(-c5ccccc5O)nnc3N)C4)n2)C1` (centres unmarked) [Compound P-195, o-[6-amino-5-(8-{2-[3-(3-fluoro-3-methyl-1-pyrrolidinyl)-1-propynyl]-4-pyrimidinyl}-2,8-diaza-2-spiro[4.5]decyl)-3-pyridazinyl]phenol], for which, in assay [1], the DC50 fell in the range of 50 to 500 nM and the “SMARCA2 % Degradation @ 1 μM” value was “++ (++=30-70%)”. In assay [2], this compound displayed a DC50 of 50 to 500 nM and an inhibition at 1 µM of 30 to 70%.
Consider `C[C@@H]1CCN(c2cc(-c3ccccc3O)nnc2N)CCN1c1ccnc(C#CC23CCC(C2)N3)n1` (stereo partly drawn) [Compound P-196, o-{5-[(R)-4-(2-{2-(5-azabicyclo[2.1.1]hex-1-yl)ethynyl}-4-pyrimidinyl)-5-methyl-1,4-diazepan-1-yl]-6-amino-3-pyridazinyl}phenol], for which, in assay [1], the DC50 lay in the range of 500 to 5000 nM and the “SMARCA2 % Degradation @ 1 μM” value was “++ (++=30-70%)”. For the same compound, in assay [2], the DC50 fell in the range of 500 to 5000 nM and the inhibition at 1 µM was < 30%.

Broadly, the DC50 is the concentration giving 50% degradation. By inhibition is commonly meant the change of the read-out against control, counted positive when it falls. A low value points to a weak effect.
